# Measurements: patent publication US20240207302A1, “ANTIVIRAL COMPOUNDS, METHODS FOR THE MANUFACTURING OF COMPOUNDS, ANTIVIRAL PHARMACEUTICAL COMPOSITION, USE OF THE COMPOUNDS AND METHOD FOR THE ORAL TREATMENT OF CORONAVIRUS INFECTION AND RELATED DISEASES THEREOF” (priority 2021, published 2024)
# Like-named read-outs stand apart in the source and are kept apart here.
# How the values were obtained:
# [1] = test system: SARS-COV-2; assay: SARS-COV-2 viral RNA synthesis in Vero cells (real time RT-PCR); type: cell-based
# [2] = test system: SARS-COV-2; assay: SARS-COV-2 viral RNA synthesis in HuH-7 cells (real time RT-PCR); type: cell-based
# [3] = Cytotoxicity assay (XTT) in Huh-7 cells; type: cell-based; details: human
# Description: In parallel, cytotoxicity assays were performed. Monolayers of 1.5×10^4 cells in 96-well plates were treated for 3 days with various concentrations (semi-log dilutions from 1,000 to 10 μM) of the antiviral drugs. Then, 5 mg/mL 2,3-bis-(2-methoxy-4-nitro-5-sulfophenyl)-2H-tetrazolium-5-carboxanilide (XTT) in DMEM was added to the cells in the presence of 0.01% of N-methyl dibenzopyrazine methyl sulfate (PMS).
# [4] = Cytotoxicity assay (XTT) in Calu-3 cells; type: cell-based, human; details: human, Table 6
# Description: (§1) In parallel, cytotoxicity assays were performed.
# [5] = test system: Calu-3 cells; assay: Cytotoxicity assay (XTT) in Calu-3 cells; type: cell-based, human; details: Calu-3, daily treatment
# Description: as §1
# [6] = test system: SARS-COV-2; assay: Combination with SARS-COV-2 nsp14 (exonuclease) inhibitors in Calu-3 cells, infectious virus titers; type: cell-based; details: for EC99 mean / EC50 / EC90: Calu-3, alone or in combination as labelled; for effect of co-treatment with raltegravir or dolutegravir (iEXO) on inhibition of SARS-COV-2: drug 10 μM, raltegravir or dolutegravir 5 μM
# [7] = test system: SARS-COV-2; details: for SI: CC50/EC50
# [8] = Cytotoxicity assay (XTT) in Vero cells; type: cell-based; details: African green monkey
# Description: as §1
# [9] = test system: Salmonella typhimirium TA 97a, TA 98, TA 100, TA 102 and TA 1535; assay: Bacterial reverse mutation (Ames) test; details: positive control 1.5 μg/plate
# [10] = Severe acute respiratory syndrome coronavirus 2
# [11] = Severe acute respiratory syndrome coronavirus 2, Calu-3, 72 h, Calu-3 (MOI 0.5 72 h), daily treatment
# [12] = Severe acute respiratory syndrome coronavirus 2, Calu-3, Table 6, Calu-3, daily treatment
# [13] = Severe acute respiratory syndrome coronavirus 2, Calu-3, Table 6, Calu-3, single treatment
# [14] = Table 6, Calu-3, daily treatment
# [15] = Table 6, Calu-3, single treatment
# [16] = Severe acute respiratory syndrome coronavirus 2, Calu-3, 72 h, Calu-3 (MOI 0.5 72 h), single moment treatment
smiles,measurement,setting,value
"C/C(=C\CNc1ncnc2[nH]cnc12)CO [MB-907, zeatin]",EC50,"[1]; Severe acute respiratory syndrome coronavirus 2, Vero, 24 h",6000 nM
same,EC50,"[2]; Severe acute respiratory syndrome coronavirus 2, Huh-7, 48 h",50 nM
same,CC50 at 3 days,[3],600000 nM
"CC(C)C(=O)OC[C@H]1O[C@@H](n2ccc(NO)nc2=O)[C@H](O)[C@@H]1O [MK-4482, N-4-hydroxycytidine-5′-isopropyl ester, reference compound]",CC50 at 3 days,"[4]; Calu-3, daily treatment",58000 nM
same,CC50 at 3 days,"[4]; Calu-3, single treatment",58000 nM
same,CC50,[5],58000 nM
same,EC99 mean,[6],9 µM
same,EC50,[6]; [10],800 nM
same,EC90,[6]; [10],7000 nM
same,efficiency impaired due to daily treatment,[7]; Calu-3,2 times
same,SI,"[7]; Calu-3, daily treatment",2900 µM
same,EC50,[7]; [11],20 nM
same,EC90,[7]; [11],8600 nM
same,EC50,[7]; [12],20 nM
same,EC90,[7]; [12],8600 nM
same,EC50,[7]; [13],720 nM
same,EC90,[7]; [13],3400 nM
same,SI,[7]; [14],"2,900"
same,SI,[7]; [15],80
COC(=O)N[C@H](C(=O)N1CCC[C@H]1C(=O)Nc1ccc([C@@H]2CC[C@@H](c3ccc(NC(=O)[C@@H]4CCCN4C(=O)[C@@H](NC(=O)OC)C(C)C)cc3)N2c2ccc(C(C)(C)C)cc2)cc1)C(C)C [Ombitasvir],EC99 mean,[6],18 µM
same,EC50,[6]; [10],400 nM
same,EC90,[6]; [10],3300 nM
COC(=O)N[C@H](C(=O)N1CCC[C@H]1c1nc2cc([C@H]3CC[C@H](c4cc5nc([C@@H]6CCCN6C(=O)[C@@H](NC(=O)OC)[C@@H](C)OC)[nH]c5cc4F)N3c3cc(F)c(N4CCC(c5ccc(F)cc5)CC4)c(F)c3)c(F)cc2[nH]1)[C@@H](C)OC [Pibrentasvir],EC99 mean,[6],19 µM
same,EC50,[6]; [10],700 nM
same,EC90,[6]; [10],4200 nM
"Cc1nnc(C(=O)NC(C)(C)c2nc(C(=O)NCc3ccc(F)cc3)c(O)c(=O)n2C)o1 [RTG, raltegravir]",EC50,[6]; [10],4800 nM
same,effect on SARS-COV-2 replication,"[6]; calu-3, 5 μM",marginal effects
"CCC(CC)COC(=O)[C@H](C)N[P@](=O)(OC[C@H]1O[C@@](C#N)(c2ccc3c(N)ncnn23)[C@H](O)[C@@H]1O)Oc1ccccc1 [Remdesivir, reference compound]",EC50,"[1]; Severe acute respiratory syndrome coronavirus 2, Vero (MOI 0.01 24 h), read-out: EC50",700 nM
same,SI,"[1]; Vero, CC50/EC50",757
same,SI,"[2]; Huh-7, CC50/EC50",46666
same,EC50,"[2]; Severe acute respiratory syndrome coronavirus 2, Huh-7 (MOI 0.1 48 h), read-out: EC50",6 nM
same,CC50 at 3 days,[8],530000 nM
same,CC50 at 3 days,[3],280000 nM
same,CC50 at 3 days,"[4]; Calu-3, daily treatment",330000 nM
same,CC50 at 3 days,"[4]; Calu-3, single treatment",350000 nM
same,EC99 mean,[6],1.1 µM
same,EC50,[6]; [10],90 nM
same,EC90,[6]; [10],400 nM
same,SI,"[7]; Calu-3, single moment treatment",2300
same,EC50,[7]; [11],10 nM
same,EC90,[7]; [11],200 nM
same,EC50,[7]; [16],150 nM
same,EC90,[7]; [16],400 nM
same,EC50,[7]; [12],10 nM
same,EC90,[7]; [12],200 nM
same,EC50,[7]; [13],150 nM
same,EC90,[7]; [13],400 nM
same,SI,[7]; [14],"3,3000"
same,SI,[7]; [15],2.300
C[C@H](Cn1cnc2c(N)ncnc21)OCP(=O)(O)O [Tenofovir],EC50,[6],4300 nM
same,effect of co-treatment with raltegravir or dolutegravir (iEXO) on inhibition of SARS-COV-2,[6]; calu-3,enhanced efficiency
"[N-]=[N+]=[N-] [sodium azide, reference compound]",Mutagenicity,[9]; TA 100 −S9,+
same,Mutagenicity,[9]; TA 1535 −S9,+
CC(C)OC(=O)[C@H](C)N[P@](=O)(OC[C@H]1O[C@@H](n2ccc(=O)[nH]c2=O)[C@](C)(F)[C@@H]1O)Oc1ccccc1 [sofosbuvir],effect of co-treatment with raltegravir or dolutegravir (iEXO) on inhibition of SARS-COV-2,[6]; calu-3,enhanced efficiency
